According to patent US20180021450A1, “ANTI-STAPHYLOCOCCUS AUREUS ANTIBODY RIFAMYCIN CONJUGATES AND USES THEREOF” (Genentech, Inc., priority 2014, published 2018):
Values after ≈ are worked out from the molar mass of the structure shown. Where two headings read alike, the source gives them in different places.

Assays:
[1] = test system: intracellular MRSA sequestered inside murine macrophages; experiment: MIC determination for intracellular bacteria inside murine peritoneal macrophages; type: cell-based, Staphylococcus aureus; conditions: for MIC: Staphylococcus aureus, MRSA, read-out: Intracellular MRSA MIC; for killing of MRSA sequestered inside macrophages: macrophages exposed to clinically achievable concentrations
Method: Intracellular MIC was determined on bacteria that were sequestered inside mouse peritoneal macrophages (see below for generation of murine peritoneal macrophages). Macrophages were plated in 24 well culture dishes at a density of 4×10^5 cells/mL and infected with MRSA at a ratio of 10-20 bacteria per macrophage. Macrophage cultures were maintained in growth media supplemented with 50 ug/mL of gentamycin (an antibiotic that is active only on extracellular bacteria) to inhibit the growth of extracellular bacteria and test antibiotics were added to the growth media 1 day after infection. The survival of intracellular bacteria was assessed 24 hours after addition of the antibiotics. Macrophages were lysed with Hanks Buffered Saline Solution supplemented with 0.1% Bovine Serum Albumin and 0.1% Triton-X, and serial dilutions of the lysate were made in Phosphate Buffered Saline solution containing 0.05% Tween-20. The number of surviving intracellular bacteria was determined by plating on Tryptic Soy Agar plates with 5% defibrinated sheep blood.
Peritoneal macrophages were isolated from the peritoneum of 6-8 week old Balb/c mice (Charles River Laboratories, Hollister, Calif.). To increase the yield of macrophages, mice were pre-treated by intraperitoneal injection with 1 mL of thioglycolate media (Becton Dickinson). The thioglycolate media was prepared at a concentration of 4% in water, sterilized by autoclaving, and aged for 20 days to 6 months prior to use. Peritoneal macrophages were harvested 4 days post treatment with thioglycolate by washing the peritoneal cavity with cold phosphate buffered saline. Macrophages were plated in Dulbecco's Modified Eagle Medium (DMEM) supplemented with 10% Fetal Calf Serum, and 10 mM HEPES, without antibiotics, at a density of 4×10^5 cells/well in 24 well culture dishes. Macrophages were cultured over night to permit adherence to the plate. This assay was also utilized to test intracellular killing in non-phagocytic cell types. MG63 (CRL-1427) and A549 (CCL185) cell lines were obtained from ATCC and maintained in RPMI 1640 tissue culture media supplemented with 10 mM Hepes and 10% Fetal Calf Serum (RPMI-10). HUVEC cells were obtained from Lonza and maintained in EGM Endothelial Cell Complete Media (Lonza, Walkersville, Md.).
(§1) For extracellular bacteria, MRSA was cultured overnight in Tryptic Soy Broth, and the MIC was determined to be the minimum antibiotic dose that prevented growth. For intracellular bacteria, murine peritoneal macrophages were infected with MRSA and cultured in the presence of gentamycin to kill extracellular bacteria. Test antibiotics were added to the culture medium one day post infection, and the total number of surviving intracellular bacteria was determined 24 hours later. The expected serum concentrations for clinically relevant antibiotics was reported in Antimicrobial Agents, Andre Bryskier. ASM Press, Washington D.C. (2005).

[2] = expected serum concentration, from Antimicrobial Agents, Bryskier (2005); cited from earlier work
[3] = test system: MRSA (NRS384 strain of USA300); experiment: MIC determination for extracellular bacteria in liquid culture; type: cell-based; conditions: Staphylococcus aureus, read-out: Extracellular MRSA MIC
Method: The MIC for extracellular bacteria was determined by preparing serial 2-fold dilutions of the antibiotic in Tryptic Soy Broth. Dilutions of the antibiotic were made in quadruplicate in 96 well culture dishes. MRSA (NRS384 strain of USA300) was taken from an exponentially growing culture and diluted to 1×10^4 CFU/mL. The bacteria was cultured in the presence of antibiotic for 18-24 hours with shaking at 37° C. and bacterial growth was determined by reading the Optical Density (OD) at […]. The MIC was determined to be the dose of antibiotic that inhibited bacterial growth by >90%.
as §1

[4] = test system: S. aureus (USA300) persister cells; experiment: Killing of persister cells by free antibiotics; type: cell-based, Staphylococcus aureus; conditions: ciprofloxacin-treated cultures, second antibiotic 1 ug/ml
Method: Killing of persisters cells by free antibiotics: S. aureus (USA300) was taken from an overnight stationary phase culture, washed once in Tryptic Soy Broth (TSB) and then adjusted to a final concentration of 1×10^7 CFU/ml in a total volume of 10 mL of either TSB or TSB with ciprofloxicin (0.05 mM). Cultures were incubated with shaking at 37° C. for 6 hours and then the second antibiotic, either rifampicin (1 ug/ml) or another rifamycin-type antibiotic (1 ug/ml) was added. At the indicated times, samples were removed from each culture, washed once with PBS to remove the antibiotic and re-suspended in PBS. The total number of surviving bacteria was determined by plating serial dilutions of the bacteria on agar plates. At the final time point the remainder of each culture was collected and plated.

MRSA = experiment: In vitro transfer of infection to MG63 osteoblasts / HBMEC in the presence of vancomycin; type: cell-based, Staphylococcus aureus
Method: 6-8 week old female A/J mice (Jackson Lab) were infected with 1×10^8 CFU of the NRS384 strain of USA300 by peritoneal injection. The peritoneal wash was harvested 1 day post infection, and the infected peritoneal cells were treated with 50 ug/mL of lysostaphin diluted in Hepes Buffer supplemented with 0.1% BSA (HB buffer) for 30 minutes at 37° C. Peritoneal cells were then washed 2x in ice cold HB buffer. The peritoneal cells were diluted to 1×10^6 cells/mL in RPMI 1640 tissue culture media supplemented with 10 mM Hepes and 10% Fetal Calf Serum, and 5 ug/mL vancomycin. Free MRSA from the primary infection was stored overnight at 4° C. in Phosphate Buffered Saline Solution as a control for extracellular bacteria that were not subject to neutrophil killing.
MG63 cell line was obtained from ATCC (CRL-1427) and maintained in RPMI 1640 tissue culture media supplemented with 10 mM Hepes and 10% Fetal Calf Serum (RPMI-10). HBMEC cells (Catalog #1000) and ECM media (catalog#1001) were obtained from SciencCell Research Labs (Carlsbad, Calif.). Cells were plated in 24 well tissue culture plates and cultured to obtain a confluent layer. On the day of the experiment, the cells were washed once in RPMI (without supplements). MRSA or infected peritoneal cells were diluted in complete RPMI-10 and vancomycin was added at 5 ug/mL immediately prior to infection. Peritoneal cells were added to the osteoblasts at 1×10^6 peritoneal cells/mL. A sample of the cells was lysed with 0.1% triton-x to determine the actual concentration of live intracellular bacteria at the time of infection. The actual titer for all infections was determined by plating serial dilutions of the bacteria on Tryptic Soy Agar with 5% defibrinated sheep blood.
MRSA (free bacteria) was seeded in media, media+vancomycin, or media+vancomycin and plated on a monolayer of MG63 osteoblasts (FIG. 1E) or Human Brain Microvascular Endothelial Cells (HBMEC, FIG. 1F). Plates were centrifuged to promote contact of the bacteria with the monolayer. At each time point, the culture supernatant was collected to recover extracellular bacteria or adherent cells were lysed to release intracellular bacteria.

USA300 = experiment: In vivo transfer of infection model in A/J mice (free vs intracellular bacteria); set-up: species or system Staphylococcus aureus; conditions: mice infected i.v. with free or intracellular bacteria, examined 4 days after infection
Method: USA300 stocks were prepared for infection from actively growing cultures in tryptic soy broth. Bacteria were washed 3× in phosphate buffered saline (PBS) and aliquots were frozen at −80° C. in PBS 25% glycerol. Intracellular Bacteria Infections: A/J mice were chosen for these experiments because they are easily infected with relatively low doses of MRSA (2×10^6 CFU/mouse). 7 week old female A/J mice were obtained from Jackson Lab and infected by peritoneal injection with 5×10^7 CFU of USA300. Mice were sacrificed 1 day post infection and the peritoneum was flushed with 5 mL of cold PBS. Peritoneal washes were centrifuged for 5 minutes at 1,000 rpm at 4° C. in a table top centrifuge. The cell pellet containing peritoneal cells was collected and cells were treated with 50 ug/mL of lysostaphin (Cell Sciences Inc. Canton Mass., CRL 309C) for 20 minutes at 37° C. to kill contaminating extracellular bacteria. Peritoneal cells were washed 3x in ice cold PBS to remove the lysostaphin. […]
These experiments compared the virulence of intracellular bacteria versus an equivalent dose of free-living planktonic bacteria, and determined whether the intracellular bacteria are able to establish infection in the presence of vancomycin in vivo. […]

[5] = bacteria sequestered inside murine macrophages, antibiotics added one day post infection, survivors counted 24 hours later
[6] = extracellular bacteria grown in liquid culture (Tryptic Soy Broth)

SMILES | MIC ([1]; 24 h) | killing of MRSA sequestered inside macrophages [1] | Serum Cmax [2] | MIC [3] | MIC [1, 5] | MIC [3, 6] | effect on viability of persister cells [4] | higher dose to eliminate intracellular MRSA compared to the dose required to inhibit growth (MIC) of planktonic bacteria ([1]; intracellular vs planktonic MRSA USA300) | increase of intracellular S. aureus over a 24 hour period (MRSA; MG63 cells, primary human brain endothelial cells, A549 cells, constant exposure to vancomycin) | survival of intracellular MRSA in the leukocytes (MRSA; MRSA sequestered inside peritoneal cells, vancomycin 5 ug/mL) | surviving bacteria associated with the MG63 cells one day after infection (MRSA; planktonic bacteria plated on MG63 osteoblasts, vancomycin 5 ug/mL) | killing of planktonic bacteria exposed to vancomycin alone (MRSA; vancomycin 5 ug/mL, one day in culture) | establishment of infection (kidney, brain) under vancomycin therapy (USA300)
CCCCCCCCCC(=O)N[C@@H](Cc1c[nH]c2ccccc12)C(=O)N[C@H](CC(N)=O)C(=O)N[C@@H](CC(=O)O)C(=O)N[C@@H]1C(=O)NCC(=O)N[C@@H](CCCN)C(=O)N[C@@H](CC(=O)O)C(=O)N[C@H](C)C(=O)N[C@@H](CC(=O)O)C(=O)NCC(=O)N[C@H](CO)C(=O)N[C@@H]([C@H](C)CC(=O)O)C(=O)N[C@@H](CC(=O)c2ccccc2N)C(=O)O[C@@H]1C [Daptomycin] | > 100 µg/mL | failed to kill | 60 µg/mL | 4 µg/mL (≈ 2.47 µM) | – | – | – | – | – | – | – | – | –
CC(=O)NC[C@H]1CN(c2ccc(N3CCOCC3)c(F)c2)C(=O)O1 [Linezolid] | – | failed to kill | 20 µg/mL | – | > 20 µg/mL | 0.3 µg/mL (≈ 0.889 µM) | – | – | – | – | – | – | –
CO[C@H]1/C=C/O[C@@]2(C)Oc3c(C)c(O)c4c(O)c(c(/C=N/N5CCN(C)CC5)c(O)c4c3C2=O)NC(=O)/C(C)=C\C=C\[C@H](C)[C@H](O)[C@@H](C)[C@@H](O)[C@@H](C)[C@H](OC(C)=O)[C@@H]1C [Rifampicin] | – | – | – | – | 50 µg/mL (≈ 60.8 µM) | 0.004 µg/mL (≈ 0.00486 µM) | no effect | 6,000 fold | – | – | – | – | –
CN[C@H](CC(C)C)C(=O)N[C@H]1C(=O)N[C@@H](CC(N)=O)C(=O)N[C@H]2C(=O)N[C@H]3C(=O)N[C@H](C(=O)N[C@H](C(=O)O)c4cc(O)cc(O)c4-c4cc3ccc4O)[C@H](O)c3ccc(c(Cl)c3)Oc3cc2cc(c3O[C@@H]2O[C@H](CO)[C@@H](O)[C@H](O)[C@H]2O[C@H]2C[C@](C)(N)[C@H](O)[C@H](C)O2)Oc2ccc(cc2Cl)[C@H]1O [Vancomycin] | > 100 µg/mL | failed to kill | 50 µg/mL | 1 µg/mL (≈ 0.69 µM) | – | – | – | – | ~10 fold | About 15% | approximately 0.06 % of input | efficiently killed | intracellular bacteria, but not planktonic bacteria, were able to establish infection
